Data reported in patent US20190231730A1, “TREATMENT OF A DISEASE MEDIATED BY ARACHIDONIC ACID OR AN EICOSANOID” (priority 2016, published 2019).

Assays:
[1] = test system: patients suffering from Cystic Fibrosis; conditions: six patients; topical under arm pits, once monthly; 0.01-1 microgram in DMSO
Experimental: (§1) The formulation was applied under arm pits (topically) to patients suffering from Cystic Fibrosis, psoriasis, ulcerative colitis and Ankylosing Spondylitis. Six patients suffering from Cystic fibrosis were administered this formulation once monthly.

[2] = test system: patient with psoriasis; experiment: Topical formulation in patients with psoriasis; conditions: approximately 30 patients
Experimental: as §1

[3] = test system: patients with Ankylosing Spondylitis; conditions: three patients
[4] = test system: patients with ulcerative colitis; conditions: one patient
[5] = test system: oesophageal adenocarcinoma; conditions: rat model; LTA4 hydrolase inhibitor, inhibition of LTB4 synthesis; cited from earlier work

CCCCC/C=C\C/C=C\C/C=C\CC#CCCCC(=O)O [5,6-dehydro arachidonic acid]
clinical benefit and symptoms in Cystic Fibrosis [1]: significant clinical benefit and reduction of symptoms
duration of symptom-free state in psoriasis [2]: remained symptom free for years
healing of psoriatic lesions on skin [2]: completely healed their psoriatic lesions
symptoms of Ankylosing Spondylitis [3]: helped them with the symptoms
decrease in all ulcerative mediations [4]: 100%
reversal of symptomatology in ulcerative colitis [4]: 100%

CC(C)C[C@H](NC(=O)[C@@H](O)[C@H](N)Cc1ccccc1)C(=O)O [bestatin]
burden of oesophageal adenocarcinoma [5]: reduced the burden of oesophageal adenocarcinoma
